Results from patent US5798373A, “Tri-substituted phenyl derivatives useful as PDE IV inhibitors” (Celltech Therapeutics, Limited, priority 1995, dated 1998).
Where a name gives a salt, the structure may show the parent alone.

Columns and labels:
[1] = molecular target: T1, Recombinant Human PDE IVA (Homo sapiens, UniProt P27815); experiment: Isolated recombinant human PDE IVA enzyme inhibition; format: biochemical; conditions: 0.1 μM [^3 H]-cAMP, pH 7.5, 30° C.
T1 construct: made in house; host or cells: yeast (inducible vector)
Method: Isolated Recombinant Human PDE IVA Enzyme
The enzymes were purified to isoenzyme homogeneity using standard chromatographic techniques.
Phosphodiesterase activity was assayed as follows. The reaction was conducted in 150 μl of standard mixture containing (final concentrations): 50 mM 2-[[tris(hydroxymethyl)methyl]amino]-1-ethanesulphonic acid (TES) --NaOH buffer (pH 7.5), 10 mM MgCl2, 0.1 μM [^3 H]-cAMP and vehicle or various concentrations of the test compounds. The reaction was initiated by addition of enzyme and conducted at 30° C. for between 5 to 30 min. The reaction was terminated by addition of 50 μl 2% trifluoroacetic acid containing [^14 C]-5'AMP for determining recovery of the product. An aliquot of the sample was then applied to a column of neutral alumina and the [^3 H]-cAMP eluted with 10 ml 0.1 TES-NaOH buffer (pH8). The [^3 H]-5'-AMP product was eluted with 2 ml 2M NaOH into a scintillation vial containing 10 ml of scintillation cocktail. Recovery of [^3 H]-5'AMP was determined using the [^14 C]-5'AMP and all assays were conducted in the linear range of the reaction. Results were expressed as IC50 values.

[2] = Rat hepatocyte metabolism (metabolic stability); format: in vitro ADME; conditions: rat hepatocytes, after 3 h, mass spectroscopy; read-out: percentage of compound remaining
Method: (§1) 2. Rat Hepatocyte Metabolism
(§2) The quantity of compound remaining after a fixed period of time was then determined using mass spectroscopy.
(§3) Thus in one such test the compound of Example 1 was compared with a related compound particularly described in International Patent Specification No. WO94/14742 in which the 4-fluorobenzylurea group is replaced by a hydrogen atom (i.e. (L^1)n Ar' above is a hydrogen atom). After 3 h the percentage of each compound remaining was: […]

[3] = test system: rat hepatocytes; experiment: Rat hepatocyte metabolism (metabolic stability); format: in vitro ADME; conditions: after 3 h
Method: as §1, §2, §3

T1 sequence (P27815 whole entry): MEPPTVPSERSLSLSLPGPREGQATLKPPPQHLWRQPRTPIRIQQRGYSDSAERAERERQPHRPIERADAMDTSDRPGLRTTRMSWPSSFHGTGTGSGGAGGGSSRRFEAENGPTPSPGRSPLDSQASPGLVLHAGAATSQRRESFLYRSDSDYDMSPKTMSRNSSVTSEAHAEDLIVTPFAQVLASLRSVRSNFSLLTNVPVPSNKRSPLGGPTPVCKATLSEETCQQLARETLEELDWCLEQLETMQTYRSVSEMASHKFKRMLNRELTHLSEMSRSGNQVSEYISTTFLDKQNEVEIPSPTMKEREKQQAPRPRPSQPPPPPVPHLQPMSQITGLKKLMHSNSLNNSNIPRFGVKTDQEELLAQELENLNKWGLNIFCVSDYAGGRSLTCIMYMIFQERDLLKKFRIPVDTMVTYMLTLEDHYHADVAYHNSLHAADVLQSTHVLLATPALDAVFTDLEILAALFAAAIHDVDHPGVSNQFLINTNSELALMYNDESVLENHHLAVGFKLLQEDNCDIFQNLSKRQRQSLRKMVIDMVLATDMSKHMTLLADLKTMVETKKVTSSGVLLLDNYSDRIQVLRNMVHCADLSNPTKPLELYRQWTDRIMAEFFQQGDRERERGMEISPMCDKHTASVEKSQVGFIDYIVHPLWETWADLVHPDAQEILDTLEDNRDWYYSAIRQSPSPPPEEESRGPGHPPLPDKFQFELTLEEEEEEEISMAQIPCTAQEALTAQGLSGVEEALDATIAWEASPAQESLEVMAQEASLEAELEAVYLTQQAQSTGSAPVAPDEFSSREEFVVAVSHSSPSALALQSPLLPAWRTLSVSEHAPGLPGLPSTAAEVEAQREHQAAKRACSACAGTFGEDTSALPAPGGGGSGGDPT

| remaining at 3 h [2] [%] | percentage of compound remaining ([3]; mass spectroscopy, listed as compound of the invention, 180 min) | extent of metabolism (in words) [3] | Structure (SMILES) | IC50 [1] [nM] |
| --- | --- | --- | --- | --- |
| > 80 | over 80% |  | COc1ccc([C@H](Cc2ccncc2)c2ccc(NC(=O)NCc3ccc(F)cc3)cc2)cc1OC1CCCC1 [Example 1, (R)-N-[4-{1-(3-cyclopentyloxy-4-methoxyphenyl)-2-(4-pyridyl)ethyl}-phenyl]-N'-(4-fluorobenzyl) urea] | 23 |
|  |  |  | COc1ccc([C@H](Cc2ccncc2)c2ccc(NS(=O)(=O)Cc3ccccc3)cc2)cc1OC1CCCC1 [Example 2, (R)-4-{2-(3-cyclopentyloxy-4-methoxyphenyl)-2-[4-(benzylsulphonylamino)phenyl]ethyl}pyridine hydrochloride] | 7.5 |
| 6 |  | extensively metabolised | COc1ccc([C@H](Cc2ccncc2)c2ccccc2)cc1OC1CCCC1 [WO94/14732 comparison compound, reference compound] |  |
